Structures can show the parent of a compound that is named as a salt.

The nature of the data set: in vitro. As to conditions: human, hek293t cells.
Consider `CC(Cl)C(=O)NCc1ccon1` (stereo not shown) [7-I13, 2-chloro-N-[(1,2-oxazol-3-yl)methyl]propanamide], for which the viability at 48 h, 25 µM was 94.7%.
The figure for `COCC(C)NC(=O)C(C#N)=Cc1cccc(F)c1F` (stereo not shown) [9-F09, 2-cyano-3-(2,3-difluorophenyl)-N-(1-methoxypropan-2-yl)prop-2-enamide] is 114%; for `N#CC(=Cc1ccc(-c2cccc([N+](=O)[O-])c2)o1)C(=O)N1CCOCC1` [8-C07, 2-(morpholine-4-carbonyl)-3-[5-(3-nitrophenyl)furan-2-yl]prop-2-enenitrile] it is 79.1%.
The figure for `C=CC(=O)NCC1CCCN1S(=O)(=O)CC` (stereo not shown) [3-F19, N-{[1-(ethanesulfonyl)pyrrolidin-2-yl]methyl}prop-2-enamide] is 68.6%.
The figure for `Cc1cc(C(=O)CCl)c(C)n1CCc1ccccc1` [10-B18, 2-chloro-1-[2,5-dimethyl-1-(2-phenylethyl)-1H-pyrrol-3-yl]ethan-1-one] is 0.0262%; for `C=CC(=O)Nc1sc2c(c1C(N)=O)CCCCC2` [1-F21, 2-(prop-2-enamido)-4H,5H,6H,7H,8H-cyclohepta[b]thiophene-3-carboxamide] it is 113%.
Turning to `C=CC(=O)N[C@H]1CCN(S(=O)(=O)c2ccccc2)C1` [3-P11, N-[(3S)-1-(benzenesulfonyl)pyrrolidin-3-yl]prop-2-enamide], the viability at 48 h, 25 µM was found to be 54.4%.
To `O=C(CCl)N1CCCC1c1ccccc1` (stereo not shown) [6-M19, 2-chloro-1-(2-phenylpyrrolidin-1-yl)ethan-1-one] belongs 0.923%; to `CN(CCc1ccccc1O)C(=O)CCl` [7-P21, 2-chloro-N-[2-(2-hydroxyphenyl)ethyl]-N-methylacetamide], -0.172%; to `CC(Cl)C(=O)N[C@H]1CCO[C@@H]1c1nccn1-c1ccccc1` (mixture of isomers) [7-A12, rac-2-chloro-N-[(2R,3R)-2-(1-phenyl-1H-imidazol-2-yl)oxolan-3-yl]propanamide], 93.1%.
Consider `O=C(CCl)Nc1nc(-c2cccs2)cs1` [5-D18, 2-chloro-N-[4-(thiophen-2-yl)-1,3-thiazol-2-yl]acetamide], for which the viability at 48 h, 25 µM was 0.312%.
The figure for `CC(Cl)C(=O)NCc1nc(-c2cccc(C#N)c2)c[nH]1` (stereo not shown) [6-F09, 2-chloro-N-{[4-(3-cyanophenyl)-1H-imidazol-2-yl]methyl}propanamide] is 113%; for `C=CC(=O)N1CCC(C(=O)N2CCC(CC(=O)N(C)C)CC2)CC1` [2-H09, N,N-dimethyl-2-{1-[1-(prop-2-enoyl)piperidine-4-carbonyl]piperidin-4-yl}acetamide] it is 61.5%.
The figure for `Cc1c(C=C(C#N)C(=O)NCC2(c3ccccc3)CC2)cc(C#N)n1C` [8-E22, 2-cyano-3-(5-cyano-1,2-dimethyl-1H-pyrrol-3-yl)-N-[(1-phenylcyclopropyl)methyl]prop-2-enamide] is 79.4%; for `N#CC(=Cc1ccco1)C(=O)NCCc1ccc(F)cc1F` [9-B11, 2-cyano-N-[2-(2,4-difluorophenyl)ethyl]-3-(furan-2-yl)prop-2-enamide] it is 122%.
As for `C=CC(=O)NCc1cccc(CNS(C)(=O)=O)c1` [3-F11, N-{[3-(methanesulfonamidomethyl)phenyl]methyl}prop-2-enamide], the viability at 48 h, 25 µM came out at 95.9%.
To `C=CC(=O)NCCN1CCCCC1C` (stereo not shown) [2-M09, N-[2-(2-methylpiperidin-1-yl)ethyl]prop-2-enamide] belongs 182%.
Consider `COc1ccc(C2=NN(C(=O)CCl)C(c3ccc(F)cc3)C2)cc1` (stereo not shown) [4-M20, 2-chloro-1-[5-(4-fluorophenyl)-3-(4-methoxyphenyl)-4,5-dihydro-1H-pyrazol-1-yl]ethan-1-one], for which the viability at 48 h, 25 µM amounted to 0.00411%.
Turning to `C=CC(=O)Nc1ccc(O)c(C(=O)O)c1` [1-G06, 2-hydroxy-5-(prop-2-enamido)benzoic acid], the viability at 48 h, 25 µM amounted to 70.3%.
The figure for `C=CC(=O)NC(c1nc(C)cs1)C1CC1` (stereo not shown) [3-D21, N-[cyclopropyl(4-methyl-1,3-thiazol-2-yl)methyl]prop-2-enamide] is 74.9%.
The figure for `CN(CC(=O)Nc1cccc(Cl)c1)C(=O)CCl` [5-F18, 2-chloro-N-{[(3-chlorophenyl)carbamoyl]methyl}-N-methylacetamide] is 0.687%; for `O=CN1CCc2cc(C(=O)CCl)ccc21` [10-K20, 5-(2-chloroacetyl)-2,3-dihydro-1H-indole-1-carbaldehyde] it is 89.7%; for `Cc1ccc(C)c(C=C(C#N)C(=O)Nc2nccs2)c1` [9-N13, 2-cyano-3-(2,5-dimethylphenyl)-N-(1,3-thiazol-2-yl)prop-2-enamide] it is 126%.
In the case of `Cc1cc(C(=O)CCl)c(C)n1-c1ccccn1` [10-C16, 2-chloro-1-[2,5-dimethyl-1-(pyridin-2-yl)-1H-pyrrol-3-yl]ethan-1-one], the viability at 48 h, 25 µM came to 79.6%.
With `O=C(CCl)c1ccc(O)cc1O` [10-C14, 2-chloro-1-(2,4-dihydroxyphenyl)ethan-1-one], the viability at 48 h, 25 µM was determined as 97.4%.
As for `CC1CN(c2ccc(NC(=O)C(C#N)=Cc3ccco3)cc2)CC(C)O1` (stereo not shown) [9-J09, 2-cyano-N-[4-(2,6-dimethylmorpholin-4-yl)phenyl]-3-(furan-2-yl)prop-2-enamide], the viability at 48 h, 25 µM was found to be 109%.
`N#Cc1cccc(C(NC(=O)CCl)C(F)(F)F)c1` (stereo not shown) [7-N04, 2-chloro-N-[1-(3-cyanophenyl)-2,2,2-trifluoroethyl]acetamide]: the viability at 48 h, 25 µM was 0.24%.
As to `C=CC(=O)NCc1ccnc(-n2cncn2)c1` [3-B18, N-{[2-(1H-1,2,4-triazol-1-yl)pyridin-4-yl]methyl}prop-2-enamide], the viability at 48 h, 25 µM was determined as 92.7%.
To `O=C(CCl)NC1CCN(C(=O)c2ccccc2)C1` (stereo not shown) [7-P06, N-(1-benzoylpyrrolidin-3-yl)-2-chloroacetamide] belongs 0.866%; to `C=CC(=O)NCc1cnc(C)n1-c1ccccc1` [2-F19, N-[(2-methyl-1-phenyl-1H-imidazol-5-yl)methyl]prop-2-enamide], 49%; to `C=CC(=O)N(C)CC(=O)N1CCN(C(=O)c2cccc(O)c2)CC1` [2-J22, N-{2-[4-(3-hydroxybenzoyl)piperazin-1-yl]-2-oxoethyl}-N-methylprop-2-enamide], 97.7%.
To `O=C(CCl)NCCc1ncc(F)cn1` [6-E19, 2-chloro-N-[2-(5-fluoropyrimidin-2-yl)ethyl]acetamide] belongs 104%; to `CC(Cl)C(=O)N1Cc2cccn2[C@@H](C)C1` (stereo partly drawn) [7-N22, 2-chloro-1-[(4S)-4-methyl-1H,2H,3H,4H-pyrrolo[1,2-a]pyrazin-2-yl]propan-1-one], 86.7%.
With `Cc1ccc(C2=NN(C(=O)CCl)C(c3cccs3)C2)o1` (stereo not shown) [5-I17, 2-chloro-1-[3-(5-methylfuran-2-yl)-5-(thiophen-2-yl)-4,5-dihydro-1H-pyrazol-1-yl]ethan-1-one], the viability at 48 h, 25 µM turned out to be 0.348%.
Take `C=CC(=O)NCCC(=O)Nc1c(C)c(C)nn1C` [2-G12, N-{2-[(1,3,4-trimethyl-1H-pyrazol-5-yl)carbamoyl]ethyl}prop-2-enamide]: the viability at 48 h, 25 µM was 93%.
The figure for `O=C(CCl)NCCN1C(=O)SC(=Cc2ccccc2F)C1=O` [4-A10, 2-chloro-N-(2-{5-[(2-fluorophenyl)methylidene]-2,4-dioxo-1,3-thiazolidin-3-yl}ethyl)acetamide] is -0.106%; for `C=CC(=O)N1CCOCC1c1cc(F)cc(F)c1` (stereo not shown) [2-O16, 1-[3-(3,5-difluorophenyl)morpholin-4-yl]prop-2-en-1-one] it is 81.8%; for `C=CC(=O)NCc1nc(-c2ccc(F)cc2)n[nH]1` [3-D04, N-{[3-(4-fluorophenyl)-1H-1,2,4-triazol-5-yl]methyl}prop-2-enamide] it is 95.1%.
To `O=C(CCl)NC(c1ccccc1)C1CC1c1ccncc1` (stereo not shown) [7-F03, 2-chloro-N-{phenyl[2-(pyridin-4-yl)cyclopropyl]methyl}acetamide hydrochloride] belongs 0.921%; to `CSc1cc(C(=O)CCl)ccc1NC(C)=O` [10-H08, N-[4-(2-chloroacetyl)-2-(methylsulfanyl)phenyl]acetamide], 8.39%; to `Cc1ccc(C)c(CN(CCO)C(=O)CCl)c1` [5-K20, 2-chloro-N-[(2,5-dimethylphenyl)methyl]-N-(2-hydroxyethyl)acetamide], 2.44%.
To `N#CC(C(=O)NC1CCCCC1)=C1N=C(N)c2ccccc21` [9-N06, 2-(3-amino-1H-isoindol-1-ylidene)-2-cyano-N-cyclohexylacetamide] belongs 80.2%.
Turning to `COc1ccccc1CNC(=O)C(C)Cl` (stereo not shown) [5-M21, 2-chloro-N-[(2-methoxyphenyl)methyl]propanamide], the viability at 48 h, 25 µM stood at 68.7%.
To `CCc1cccc(CC)c1NC(=O)C(C#N)=Cc1ccc(C#N)cc1` [9-O15, 2-cyano-3-(4-cyanophenyl)-N-(2,6-diethylphenyl)prop-2-enamide] belongs 36.5%.
The figure for `CC(Cl)C(=O)N1CCCCC1C1CCCN(C(=O)C(F)(F)F)C1` (stereo not shown) [6-F16, 2-chloro-1-[1'-(2,2,2-trifluoroacetyl)-[2,3'-bipiperidin]-1-yl]propan-1-one] is 105%; for `CC(Cl)C(=O)Nc1ccc(F)cc1` (stereo not shown) [6-K15, 2-chloro-N-(4-fluorophenyl)propanamide] it is 113%.
To `C=CC(=O)Nc1ccc(C(C)CC(N)=O)cc1` (stereo not shown) [1-I16, 3-[4-(prop-2-enamido)phenyl]butanamide] belongs 72.6%; to `Cc1ccc(F)cc1NC(=O)CCl` [4-O03, 2-chloro-N-(5-fluoro-2-methylphenyl)acetamide], 0.509%.
As for `N#CC(=Cc1ccco1)C(=O)Nc1cc2c(cc1Cl)NC(=O)CO2` [9-D20, N-(6-chloro-3-oxo-3,4-dihydro-2H-1,4-benzoxazin-7-yl)-2-cyano-3-(furan-2-yl)prop-2-enamide], the viability at 48 h, 25 µM worked out at 87%.

A word on the viability: it is a read-out of living cells in per cent, often relative to untreated cells.

(Values after publication PMC11995724, “Antibiotic target discovery by integrated phenotypic and activity-based profiling of electrophilic fragments” (Cell chemical biology, 2025).)
